Measured values taken from patent EP4681707A1, “METHOD FOR TREATING DISEASES BY USING REPARIXIN ALONE OR IN COMBINATION WITH ANTI-PD-1 ANTIBODY” (Shandong Cancer Hospital Affiliated to Shandong First …, priority 2023, dated 2024).

Columns and labels:
IL-1β = conditions: after MCAo in mice; cited from earlier work
gastric cancer = conditions: treatment of gastric cancer; cited from earlier work
NAFLD = assay: Mouse NAFLD model induced by 60% high-fat feed, oil red staining and immunohistochemistry of liver (Example 6); format: in vivo; conditions: NAFLD mice, 30 mg/kg intraperitoneally once every 2 days
Procedure: Experimental methods: The "Western diet" (WD) was simulated with 60% high-fat feed, and the NAFLD model could be established within 12 weeks. After the establishment of the animal model, the mice were intraperitoneally injected once every 2 days at a dose of 30 mg/kg. Liver tissues of the mice were collected on days 12, 15, and 21 of administration, and oil red staining was performed on the liver tissues of each group.
(§1) Experimental grouping: The experimental groups were injected with reparixin, and the control group was injected with PBS.
(A) After NAFLD was established, raparixin was intraperitoneally injected once every two days; macroscopic views of representative liver tissues and oil red staining of liver sections in each group are shown, and the scale represents 50 µm. (B) Oil red staining positive area rate of NAFLD and 12-day treatment groups, n = 4. (C) Oil red staining positive area rate of NAFLD and 15-day treatment groups, n = 4. Statistical test: mean + SD, Student's t-test, * p < 0.05.
A: representative gross views of livers of mice in the NAFLD treatment group and untreated group, and oil red O staining and immunohistochemical staining on liver sections of the two groups of mice, with the scale bar being 100 µm; B-C: comparison of mean immunohistochemical staining densities of IL6 (B) and CXCR2 (C) in livers of NAFLD mice treated with reparixin for 21 days (mean ± SD, Student's t test).

[1] = 5 mg/kg subcutaneously once daily for 3 consecutive weeks; cited from earlier work
Luciferase-MC38 cells = assay: Mouse CRC liver metastasis model by intra-splenic injection, reparixin alone (Example 4); format: in vivo, C57BL/6 mice; conditions: for liver weight / liver/body weight ratio: reparixin 30 mg/kg intraperitoneally every other day, day 12
Procedure: Experimental methods: Luciferase-MC38 cells were intrasplenically injected into C57BL/6 mice complicated by NAFLD or uncomplicated by NAFLD. Subsequently, reparixin (MCE, 30 mg/kg) or PBS was intraperitoneally injected every other day. On day 6 after tumor inoculation, the extent of liver metastasis was observed by imaging using an In vivo Imaging System (IVIS, PerkinElmer, Hopkinton, MA, USA). On day 12 after tumor inoculation, the mice were sacrificed under isoflurane anesthesia and soaked in alcohol for 30 min. Livers from each group of mice were prepared into single-cell suspensions, which were subjected to blocking, staining, incubation, and subsequent detection on the machine.
as §1
(A) Experimental treatment protocol: After Luciferase-MC38 cells were inoculated, PBS or reparixin was injected on days 3, 5, 7, 9, and 11, respectively, and the mice were sacrificed on day 12. (B) In vivo bioluminescence imaging of each group (CRLM group, CRLM + reparixin group, NAFLD + CRLM group, NAFLD + CRLM + reparixin group) on day 6 after tumor inoculation. (C) Representative gross anatomical views of livers of each group of mice (samples collected on day 12 after treatment); yellow arrows represent tumors. (D) Liver weight of each group of mice; n = 5-6.

With `CC(C)Cc1ccc([C@@H](C)C(=O)NS(C)(=O)=O)cc1` [reparixin] as the molecule, how does the “level of IL-1β in the brain” value (IL-1β) read?
Its value is “reduce”.

And the “overall survival (OS) rate” value (gastric cancer)?
Its value is “prolongs”.

What about the “programmed death ligand 1 macrophages” value (gastric cancer) of the same molecule?
The value was “reduction”.

And the inflammation (NAFLD; IL6 and CXCR2 staining after 21 days)?
Its inflammation is “reduce inflammation”.

What about the hepatocellular steatosis (NAFLD; days 12, 15, 21) of the same molecule?
The hepatocellular steatosis was “significantly ameliorated”.

What about the lipid vacuoles (NAFLD; days 12, 15, 21) of the same molecule?
The lipid vacuoles was “reduced”.

And the blood flow [1]?
The blood flow was “increased”.

And the systolic blood pressure [1]?
The systolic blood pressure was “effectively reduced”.

And the liver weight (Luciferase-MC38 cells; CRLM animal model)?
The liver weight was “decreased significantly”.

What about the liver/body weight ratio (Luciferase-MC38 cells; CRLM animal model) of the same molecule?
Its liver/body weight ratio is “decreased significantly”.

What about the liver weight (Luciferase-MC38 cells; NAFLD + CRLM animal model) of the same molecule?
The liver weight was “decreased significantly”.

And the liver/body weight ratio (Luciferase-MC38 cells; NAFLD + CRLM animal model)?
Its liver/body weight ratio is “decreased significantly”.

What about the liver metastasis burden (Luciferase-MC38 cells; especially in mice complicated by NAFLD, 30 mg/kg intraperitoneally) of the same molecule?
Its liver metastasis burden is “can reduce the liver metastasis burden”.
